Patent publication US10960005B2, “Treatment of relapsed and/or refractory solid tumors and non-hodgkin's lymphomas” (CELGENE QUANTICEL RESEARCH, INC., priority 2016, dated 2021)
Read-outs that look alike come from different tables or passages of the source.

Experiments:
[1] = system: Salmonella typhimurium TA98 and TA100 strains; experiment: Bacterial reverse mutation assay; assay type: cell-based; settings: up to 500 μg/mL; in presence and absence of S9
[2] = Excretion in bile duct cannulated rats (IV); assay type: in vivo; settings: 24-hour period post dosing
[3] = Pharmacokinetics after single IV and oral dose, Cynomolgus monkeys; assay type: in vivo; settings: Monkey, male
Procedure: (§1) AUClast=area under the plasma concentration-time curve from time zero to time of last measurable concentration; Cmax=maximum plasma concentration; F=oral bioavailability; hr=hour, PK=pharmacokinetic; SD=standard deviation; t1/2 z=apparent half-life of the terminal phase of the concentration-time curve; tmax=time of Cmax. In mouse, PK parameters were determined using composite plasma samples obtained from n=3animals/time point. In other species, PK parameters are from n=3 animals and values shown are mean and SD (in parentheses).

[4] = system: LXFS 2156 SCLC patient-derived xenograft; experiment: Efficacy in LXFS 2156 SCLC PDX model; assay type: in vivo, mice; settings: 5 mg base/kg orally QD×23
NCI-H1417 SCLC xenograft = assay type: in vivo
MS-1 hMCC xenograft = experiment: Efficacy in MS-1 hMCC xenograft (NSG mice); assay type: in vivo; settings: 5 mg/kg PO 5 on/2 off; head prints Day-15, TGI analysis on Day 36
[5] = system: LXFS 615 SCLC patient-derived xenograft; settings: 5 mg base/kg; plasma after final dose
[6] = Pharmacokinetics after single IV and oral dose, Beagle dogs; assay type: in vivo; settings: Dog, male
Procedure: as §1

[7] = system: LXFS 573 SCLC patient-derived xenograft; assay type: in vivo
[8] = Hemodynamic and ECG parameters in anesthetized guinea pigs (IV infusion); settings: for mean plasma concentration at end of infusion: 10 minutes
Procedure: The effects of Compound Aon hemodynamic and ECG parameters were examined in anesthetized, male Dunkin Hartley guinea pigs. […] An escalating dose design was utilized in which doses were administered sequentially at 20-minute intervals. Animals were monitored throughout the experiment.

[9] = Compound A monotherapy 5 mg/kg PO 5 on/2 off
[10] = etoposide 24 mg/kg SC QD×3 followed by Compound A 5 mg/kg PO 5 on/2 off
[11] = Compound A 1 mg/kg in combination with etoposide 24 mg/kg
[12] = after escalating IV doses to 20 mg base/kg

COc1ccc(-c2c(-c3ccc(C#N)c(F)c3)nc(N3CCC(N)CC3)n(C)c2=O)cc1F [Compound A]
mutagenicity [1]: negative for mutagenicity | dose excreted intact in urine [2]: 8.5 % of dose | AUC∞ ([3]; single IV 1 mg base/kg): 983 ng·h/mL | CL ([3]; single IV 1 mg base/kg): 18 mL/min/kg | Vss ([3]; single IV 1 mg base/kg): 17.119 L/kg | t1/2,z ([3]; single IV 1 mg base/kg): 12.0 h | % F ([3]; single oral 5 mg base/kg): 82% | AUClast ([3]; single oral 5 mg base/kg): 3618 ng·h/mL | Cmax ([3]; single oral 5 mg base/kg): 187 ng/mL | t1/2,z ([3]; single oral 5 mg base/kg): 12.9 h | tmax ([3]; single oral 5 mg base/kg): 6.0 h | TGI [4]: −7% | % TGD (NCI-H1417 SCLC xenograft; [9]): 335% | TGD (NCI-H1417 SCLC xenograft; [9]): 87 days | median TTE (NCI-H1417 SCLC xenograft; [9]): 113 days | % TGD (NCI-H1417 SCLC xenograft; [10]): 435% | TGD (NCI-H1417 SCLC xenograft; [10]): 113 days | median TTE (NCI-H1417 SCLC xenograft; [10]): 139 days | Median Tumor Volumes Day-15 (MS-1 hMCC xenograft): 129 mm^3 | AUC0-24 [5]: 1,617 ng·hr/mL | AUC∞ ([6]; single IV 1 mg base/kg): 1944 ng·h/mL | CL ([6]; single IV 1 mg base/kg): 9 mL/min/kg | Vss ([6]; single IV 1 mg base/kg): 11.058 L/kg | t1/2,z ([6]; single IV 1 mg base/kg): 15.5 h | % F ([6]; single oral 1 mg base/kg): 84% | AUClast ([6]; single oral 1 mg base/kg): 1089 ng·h/mL | Cmax ([6]; single oral 1 mg base/kg): 69 ng/mL | t1/2,z ([6]; single oral 1 mg base/kg): 15.0 h | tmax ([6]; single oral 1 mg base/kg): 2.0 h | % F ([6]; single oral 3 mg base/kg): 100% | AUClast ([6]; single oral 3 mg base/kg): 3792 ng·h/mL | Cmax ([6]; single oral 3 mg base/kg): 298 ng/mL | t1/2,z ([6]; single oral 3 mg base/kg): 19.4 h | tmax ([6]; single oral 3 mg base/kg): 1.0 h | % F ([6]; single oral 6 mg base/kg): 100% | AUClast ([6]; single oral 6 mg base/kg): 8792 ng·h/mL | Cmax ([6]; single oral 6 mg base/kg): 627 ng/mL | t1/2,z ([6]; single oral 6 mg base/kg): 17.8 h | tmax ([6]; single oral 6 mg base/kg): 1.0 h | % TGD [7, 11]: 38% | TGD [7, 11]: 16 days | median TTE [7, 11]: 59 days | survivors on Day 133 ([7]; Compound A 1 mg/kg in combination with etoposide 24 mg/kg, of eight): 1 | TGD ([7]; Compound A 2.5 mg/kg in combination with etoposide 24 mg/kg): 79 days | survivors on Day 133 ([7]; Compound A 2.5 mg/kg in combination with etoposide 24 mg/kg, of eight): 3 | TGD ([7]; Compound A 5 mg/kg in combination with etoposide 24 mg/kg): 91 days | survivors on Day 133 ([7]; Compound A 5 mg/kg in combination with etoposide 24 mg/kg, of eight): 8 | study survivors on Day 133 ([7]; Compound A monotherapy 5 mg/kg, of eight): seven | mean plasma concentration at end of infusion ([8]; 15 mg base/kg IV): 4269 ng/mL | mean plasma concentration at end of infusion ([8]; 20 mg base/kg IV): 6707 ng/mL | maximum decrease in HR vs vehicle ([8]; 20 mg base/kg IV, 9 minutes into 10-minute infusion): 19% | decrease in heart rate at end of monitoring period [8, 12]: 18% | increase of QTcB interval at end of monitoring period [8, 12]: 10%
